Measurements from patent US8716292B2, “Riminophenazines with 2-(heteroaryl)amino substituents and their anti-microbial activity” (priority 2010, dated 2014).
In brackets after ≈: the same amount, converted by molar mass.

System: Mycobacterium tuberculosis H37Rv strains
Assay: In vitro assay for antimicrobial susceptibility (microplate Alamar blue MIC)
Assay type: cell-based
Details: Mycobacterium tuberculosis, H37RV, in vitro, Mycobacterium tuberculosis H37Rv strains; read-out: MIC (μg/mL) against H37Rv

COc1ncccc1Nc1cc2nc3ccccc3n(-c3ccc(C)cc3)c-2c/c1=N\C1CC1 [TBI-339, 5-(4-Methylphenyl)-3-cyclopropylimino-2-(2-methoxy-3-pyridyl)amino-3,5-dihydrophenazine]
MIC: 0.033 µg/mL (≈ 0.0737 µM)

Cc1ccc(-n2c3c/c(=N\C4CC4)c(Nc4ccc(C)nc4)cc-3nc3ccccc32)cc1 [TBI-340, 5-(4-Methylphenyl)-3-cyclopropylimino-2-(6-methyl-3-pyridyl)amino-3,5-dihydrophenazine]
MIC: 0.149 µg/mL (≈ 0.345 µM)

Cc1ccc(-n2c3c/c(=N\C4CC4)c(Nc4cccnc4C)cc-3nc3ccccc32)cc1 [TBI-341, 5-(4-Methylphenyl)-3-cyclopropylimino-2-(2-methyl-3-pyridyl)amino-3,5-dihydrophenazine]
MIC: 0.014 µg/mL (≈ 0.0324 µM)

Cc1ccc(-n2c3c/c(=N\C4CC4)c(Nc4cncc(C)c4)cc-3nc3ccccc32)cc1 [TBI-342, 5-(4-Methylphenyl)-3-cyclopropylimino-2-(5-methyl-3-pyridyl)amino-3,5-dihydrophenazine]
MIC: 0.022 µg/mL (≈ 0.051 µM)

Clc1ccc(-n2c3c/c(=N\C4CC4)c(Nc4cccnc4)cc-3nc3ccccc32)cc1Cl [TBI-343, 5-(3,4-Dichlorophenyl)-3-cyclopropylimino-2-(3-pyridyl)amino-3,5-dihydrophenazine]
MIC: 0.014 µg/mL (≈ 0.0296 µM)

COc1ncccc1Nc1cc2nc3ccccc3n(-c3ccc(C)cc3)c-2c/c1=N\C1CCC1 [TBI-344, 5-(4-Methylphenyl)-3-cyclobutylimino-2-(2-methoxy-3-pyridyl)amino-3,5-dihydrophenazine]
MIC: 0.04 µg/mL (≈ 0.0867 µM)

Cc1ccc(-n2c3c/c(=N\C4CCC4)c(Nc4cccnc4)cc-3nc3ccccc32)cc1 [TBI-345, 5-(4-Methylphenyl)-3-cyclobutylimino-2-(3-pyridyl)amino-3,5-dihydrophenazine]
MIC: 0.221 µg/mL (≈ 0.512 µM)

Cc1ccc(-n2c3c/c(=N\C4CCC4)c(Nc4ccc(C)nc4)cc-3nc3ccccc32)cc1 [TBI-346, 5-(4-Methylphenyl)-3-cyclobutylimino-2-(6-methyl-3-pyridyl)amino-3,5-dihydrophenazine]
MIC: 0.058 µg/mL (≈ 0.13 µM)

Cc1ccc(-n2c3c/c(=N\C4CCC4)c(Nc4cccnc4C)cc-3nc3ccccc32)cc1 [TBI-347, 5-(4-Methylphenyl)-3-cyclobutylimino-2-(2-methyl-3-pyridyl)amino-3,5-dihydrophenazine]
MIC: 0.042 µg/mL (≈ 0.0943 µM)

Cc1ccc(-n2c3c/c(=N\C4CCC4)c(Nc4cncc(C)c4)cc-3nc3ccccc32)cc1 [TBI-348, 5-(4-Methylphenyl)-3-cyclobutylimino-2-(5-methyl-3-pyridyl)amino-3,5-dihydrophenazine]
MIC: 0.118 µg/mL (≈ 0.265 µM)

Cc1ccc(-n2c3c/c(=N\C4CC4)c(Nc4cccnc4)cc-3nc3ccccc32)cc1 [TBI-349, 5-(4-Methylphenyl)-3-cyclopropylimino-2-(3-pyridyl)amino-3,5-dihydrophenazine]
MIC: 0.0075 µg/mL (≈ 0.018 µM)

Clc1ccc(-n2c3c/c(=N\C4CCCCC4)c(Nc4cccnc4)cc-3nc3ccccc32)cc1Cl [TBI-350, 5-(3,4-Dichlorophenyl)-3-cyclohexylimino-2-(3-pyridyl)amino-3,5-dihydrophenazine]
MIC: 0.031 µg/mL (≈ 0.0603 µM)

Clc1ccc(-n2c3c/c(=N\C4CCOCC4)c(Nc4cccnc4)cc-3nc3ccccc32)cc1Cl [TBI-351, 5-(3,4-Dichlorophenyl)-3-(4-tetrahydropyranyl)imino-2-(3-pyridyl)amino-3,5-dihydrophenazine]
MIC: 0.079 µg/mL (≈ 0.153 µM)

COC1CCC(/N=c2\cc3n(-c4ccc(Cl)c(Cl)c4)c4ccccc4nc-3cc2Nc2cccnc2)CC1 (stereo not drawn) [TBI-352, 5-(3,4-Dichlorophenyl)-3-(4-methoxycyclohexyl)imino-2-(3-pyridyl)amino-3,5-dihydrophenazine]
MIC: 0.096 µg/mL (≈ 0.176 µM)

Cc1ccc(Nc2cc3nc4ccccc4n(-c4ccc(Cl)c(Cl)c4)c-3c/c2=N\C(C)C)cn1 [TBI-353]
MIC: 0.025 µg/mL (≈ 0.0512 µM)

Cc1ccc(Nc2cc3nc4ccccc4n(-c4ccc(Cl)c(Cl)c4)c-3c/c2=N\C2CCCCC2)cn1 [TBI-354, 5-(3,4-Dichlorophenyl)-3-cyclohexylimino-2-(6-methyl-3-pyridyl)amino-3,5-dihydrophenazine]
MIC: 0.229 µg/mL (≈ 0.433 µM)

COC1CCC(/N=c2\cc3n(-c4ccc(Cl)c(Cl)c4)c4ccccc4nc-3cc2Nc2ccc(C)nc2)CC1 (stereo not drawn) [TBI-355, 5-(3,4-Dichlorophenyl)-3-(4-methoxycyclohexyl)imino-2-(6-methyl-3-pyridyl)amino-3,5-dihydrophenazine]
MIC: 0.09 µg/mL (≈ 0.161 µM)

COc1ccc(Nc2cc3nc4ccccc4n(-c4ccc(C)cc4)c-3c/c2=N\C(C)C)cn1 [TBI-356, 5-(4-Methylphenyl)-3-(1-methylethyl)imino-2-(6-methoxy-3-pyridyl)amino-3,5-dihydrophenazine]
MIC: 0.459 µg/mL (≈ 1.02 µM)

COc1ccc(Nc2cc3nc4ccccc4n(-c4ccc(C)cc4)c-3c/c2=N\C2CCCCC2)cn1 [TBI-357, 5-(4-Methylphenyl)-3-cyclohexylimino-2-(6-methoxy-3-pyridyl)amino-3,5-dihydrophenazine]
MIC: 0.228 µg/mL (≈ 0.466 µM)

COc1ccc(Nc2cc3nc4ccccc4n(-c4ccc(C)cc4)c-3c/c2=N\C2CCC(OC)CC2)cn1 (stereo not drawn) [TBI-358, 5-(4-Methylphenyl)-3-(4-methoxycyclohexyl)imino-2-(6-methoxy-3-pyrid)amino-3,5-dihydrophenazine]
MIC: 0.202 µg/mL (≈ 0.389 µM)

COc1ccc(Nc2cc3nc4ccccc4n(-c4ccc(C)cc4)c-3c/c2=N\C2CCOCC2)cn1 [TBI-360, 5-(4-Methylphenyl)-3-(4-tetrahydropyranyl)imino-2-(6-methoxy-3-pyridyl)amino-3,5-dihydrophenazine]
MIC: 0.2 µg/mL (≈ 0.407 µM)

COc1ncccc1Nc1cc2nc3ccccc3n(-c3ccc(Cl)c(Cl)c3)c-2c/c1=N\C1CCOCC1 [TBI-361, 5-(3,4-Dichlorophenyl)-3-(4-tetrahydropyranyl)imino-2-(2-methoxy-3-pyridyl)amino-3,5-dihydrophenazine]
MIC: 0.08 µg/mL (≈ 0.146 µM)

CC(C)/N=c1\cc2n(-c3ccc(Cl)cc3Cl)c3ccccc3nc-2cc1Nc1cccnc1 [TBI-363, 5-(2,4-Dichlorophenyl)-3-(1-methylethyl)imino-2-(3-pyridyl)amino-3,5-dihydrophenazine]
MIC: 0.03 µg/mL (≈ 0.0632 µM)

COc1ncccc1Nc1cc2nc3ccccc3n(-c3ccc(OC(F)(F)F)cc3)c-2c/c1=N\C1CC1 [TBI-364, 5-(4-Trifluoromethoxyphenyl)-3-cyclopropylimino-2-(2-methoxy-3-pyridyl)amino-3,5-dihydrophenazine]
MIC: 0.015 µg/mL (≈ 0.029 µM)

COc1ncccc1Nc1cc2nc3ccccc3n(-c3ccc(OC(F)(F)F)cc3)c-2c/c1=N\C1CCCCC1 [TBI-365, 5-(4-Trifluoromethoxyphenyl)-3-cyclohexylimino-2-(2-methoxy-3-pyridyl)amino-3,5-dihydrophenazine]
MIC: 0.018 µg/mL (≈ 0.0322 µM)

Clc1ccc(-n2c3c/c(=N\C4CC4)c(Nc4cccnc4)cc-3nc3ccccc32)c(Cl)c1 [TBI-367, 5-(2,4-Dichlorophenyl)-3-cyclopropylimino-2-(3-pyridyl)amino-3,5-dihydrophenazine]
MIC: 0.023 µg/mL (≈ 0.0487 µM)

Clc1ccc(-n2c3c/c(=N\C4CCCCC4)c(Nc4cccnc4)cc-3nc3ccccc32)c(Cl)c1 [TBI-368, 5-(2,4-Dichlorophenyl)-3-cyclohexylimino-2-(3-pyridyl)amino-3,5-dihydrophenazine]
MIC: 0.054 µg/mL (≈ 0.105 µM)

COc1ncccc1Nc1cc2nc3ccccc3n(-c3ccc(Cl)cc3Cl)c-2c/c1=N\C(C)C [TBI-369, 5-(2,4-Dichlorophenyl)-3-(1-methylethyl)imino-2-(2-methoxy-3-pyridyl)amino-3,5-dihydrophenazine]
MIC: 0.104 µg/mL (≈ 0.206 µM)

COc1ncccc1Nc1cc2nc3ccccc3n(-c3ccc(Cl)cc3Cl)c-2c/c1=N\C1CC1 [TBI-370, 5-(2,4-Dichlorophenyl)-3-cyclopropylimino-2-(2-methoxy-3-pyridyl)amino-3,5-dihydrophenazine]
MIC: 0.052 µg/mL (≈ 0.104 µM)

COc1ncccc1Nc1cc2nc3ccccc3n(-c3ccc(Cl)cc3Cl)c-2c/c1=N\C1CCC(OC)CC1 (stereo not drawn) [TBI-371, 5-(2,4-Dichlorophenyl)-3-(4-methoxycyclohexyl)imino-2-(2-methoxy-3-pyridyl)amino-3,5-dihydrophenazine]
MIC: 0.044 µg/mL (≈ 0.0766 µM)

COCC(COC)/N=c1\cc2n(-c3ccc(OC(F)(F)F)cc3)c3ccccc3nc-2cc1Nc1cccnc1OC [TBI-372]
MIC: 0.098 µg/mL (≈ 0.169 µM)

COCC(COC)/N=c1\cc2n(-c3ccc(C)cc3)c3ccccc3nc-2cc1Nc1cccnc1OC [TBI-373, 5-(4-Methylphenyl)-3-(1,3-dimethoxyisopropyl)imino-2-(2-methoxy-3-pyridyl)amino-3,5-dihydrophenazine]
MIC: 0.125 µg/mL (≈ 0.245 µM)

COCC(COC)/N=c1\cc2n(-c3ccc(C)cc3)c3ccccc3nc-2cc1Nc1ccc(C)nc1 [TBI-374, 5-(4-Methylphenyl)-3-(1,3-dimethoxyisopropyl)imino-2-(6-methyl-3-pyridyl)amino-3,5-dihydrophenazine]
MIC: 0.125 µg/mL (≈ 0.253 µM)

COCC(COC)/N=c1\cc2n(-c3ccc(Cl)c(Cl)c3)c3ccccc3nc-2cc1Nc1cccnc1OC [TBI-375, 5-(3,4-Dichlorophenyl)-3-(1,3-dimethoxyisopropyl)imino-2-(2-methoxy-3-pyridyl)amino-3,5-dihydrophenazine]
MIC: 0.125 µg/mL (≈ 0.221 µM)

Clc1ccc(-n2c3c/c(=N\CCN4CCOCC4)c(Nc4cccnc4)cc-3nc3ccccc32)cc1 [TBI-433, 5-(4-Chlorophenyl)-3-(2-morpholinoethyl)imino-2-(3-pyridyl)amino-3,5-dihydrophenazine]
MIC: 0.25 µg/mL (≈ 0.489 µM)

COc1ncccc1Nc1cc2nc3ccccc3n(-c3ccc(Cl)cc3)c-2c/c1=N\C(C)C [TBI-438, 5-(4-Chlorophenyl)-3-(1-methylethyl)imino-2-(2-methoxy-3-pyridyl)amino-3,5-dihydrophenazine]
MIC: 0.03 µg/mL (≈ 0.0638 µM)

COc1ncccc1Nc1cc2nc3ccccc3n(-c3ccc(Cl)cc3)c-2c/c1=N\CCN1CCOCC1 [TBI-439, 5-(4-Chlorophenyl)-3-(2-morpholinoethyl)imino-2-(2-methoxy-3-pyridyl)amino-3,5-dihydrophenazine]
MIC: 0.06 µg/mL (≈ 0.111 µM)

COc1ncccc1Nc1cc2nc3ccccc3n(-c3ccc(Cl)cc3)c-2c/c1=N\C1CCN(C)CC1 [TBI-440, 5-(4-Chlorophenyl)-3-(N-methyl-4-piperidyl)imino-2-(2-methoxy-3-pyridyl)amino-3,5-dihydrophenazine]
MIC: 0.06 µg/mL (≈ 0.114 µM)

Cc1ccc(Nc2cc3nc4ccccc4n(-c4ccc(Cl)cc4)c-3c/c2=N\C(C)C)cn1 [TBI-441]
MIC: 0.06 µg/mL (≈ 0.132 µM)
